Measured values published in article PMC8776228 (International Journal of Molecular Sciences, 2022).
Values after ≈ are worked out from the molar mass of the structure shown. Like-named read-outs stand apart in the source and are kept apart here.

How the values were obtained:
[1] = tested on: M. tuberculosis H37Rv-pSODIT:dprE1; assay: microbe, parasite or virus in culture; format: cell-based, Mycobacterium tuberculosis
[2] = tested on: M. tuberculosis NTB1 (DprE1 C387S); format: cell-based, Mycobacterium tuberculosis
[3] = tested on: M. tuberculosis NTB9 (DprE1 C387G); format: cell-based, Mycobacterium tuberculosis
M. tuberculosis IC2 = assay: microbe, parasite or virus in culture; format: cell-based; conditions: Mycobacterium tuberculosis
[4] = tested on: M. tuberculosis 88.7 (pyrG, V186G); format: cell-based, Mycobacterium tuberculosis
[5] = tested on: M. tuberculosis Ty1 (Rv3405c, c190t); format: cell-based, Mycobacterium tuberculosis
[6] = tested on: M. tuberculosis 81.10 (ethA, D1109-37); format: cell-based, Mycobacterium tuberculosis
M. tuberculosis IC1 = assay: microbe, parasite or virus in culture; format: cell-based; conditions: Mycobacterium tuberculosis
[7] = tested on: M. tuberculosis 53.3 (Rv2466c, W28S); format: cell-based, Mycobacterium tuberculosis
[8] = tested on: M. tuberculosis 88.1 (coaA, Q207R); format: cell-based, Mycobacterium tuberculosis
[9] = tested on: M. tuberculosis DR1 (mmpL3, V681I); format: cell-based, Mycobacterium tuberculosis
[10] = tested on: M. tuberculosis 53.8 (Rv0579, L240V); format: cell-based, Mycobacterium tuberculosis

SMILES: C[C@H]1COC2(CCN(c3nc(=O)c4cc(C(F)(F)F)cc([N+](=O)[O-])c4s3)CC2)O1 [BTZ043]
- MIC ([1]; Mycobacterium tuberculosis, H37RV, read-out: MIC BTZ043): 1 µg/mL (≈ 2.32 µM)
- MIC BTZ043 [2]: >1 µg/mL
- MIC BTZ043 [3]: 1 µg/mL (≈ 2.32 µM)

SMILES: CO[C@H]1C[C@H](O[C@@H]2/C(C)=C/C[C@@H]3C[C@@H](C[C@]4(CC[C@H](C)[C@@H](C5CCCCC5)O4)O3)OC(=O)[C@@H]3C=C(C)/C(=N/O)[C@H]4OC/C(=C\C=C\[C@@H]2C)[C@]43O)O[C@@H](C)[C@@H]1O [Selamectin]
- MIC (M. tuberculosis IC2; IC2, read-out: MIC SEL): 4 to 8 µg/mL (≈ 5.19 to 10.4 µM)
- MIC SEL [4]: 2 to 4 µg/mL
- change in susceptibility upon overexpression of dprE1 (MIC) [1]: did not confer changes in the susceptibility
- MIC SEL [2]: 2 µg/mL (≈ 2.6 µM)
- change in sensitivity compared to H37Rv (MIC) [2]: two-fold increase in sensitivity
- MIC SEL [5]: 2 to 4 µg/mL
- MIC SEL [6]: 4 to 8 µg/mL
- MIC (M. tuberculosis IC1; IC1, read-out: MIC SEL): 4 to 8 µg/mL (≈ 5.19 to 10.4 µM)
- MIC SEL [7]: 2 to 4 µg/mL
- MIC SEL [8]: 2 to 4 µg/mL
- MIC SEL [9]: 2 to 4 µg/mL
- MIC SEL [10]: 2 to 4 µg/mL
- MIC SEL [3]: 2 µg/mL (≈ 2.6 µM)
- change in sensitivity compared to H37Rv (MIC) [3]: two-fold increase in sensitivity

SMILES: NNC(=O)c1ccncc1 [INH, isoniazid]
- MIC (M. tuberculosis IC2; IC2, read-out: MIC INH): > 0.2 µg/mL
- MIC INH [4]: 0.025 µg/mL (≈ 0.182 µM)
- MIC INH [2]: 0.025 µg/mL (≈ 0.182 µM)
- MIC INH [5]: 0.025 µg/mL (≈ 0.182 µM)
- MIC INH [6]: 0.025 µg/mL (≈ 0.182 µM)
- MIC (M. tuberculosis IC1; IC1, read-out: MIC INH): > 0.2 µg/mL
- MIC INH [7]: 0.025 µg/mL (≈ 0.182 µM)
- MIC INH [8]: 0.025 µg/mL (≈ 0.182 µM)
- MIC INH [9]: 0.025 µg/mL (≈ 0.182 µM)
- MIC INH [10]: 0.025 µg/mL (≈ 0.182 µM)
- MIC INH [3]: 0.025 µg/mL (≈ 0.182 µM)
